In patent US11041205B2, “Molecular targets for ALS and related disorders” (Northwestern University, priority 2010, dated 2021):
Entries after “also recorded” stand apart in the source; their conditions may differ. Peptide text beside a SMILES is read from it. * marks the point of attachment. Cbz = O=C(OCc1ccccc1)*

Test system: Ub^G76V-GFP reporter (ubiquitin-proteasome system) in transiently transfected cells
Assay: UPS reporter assay (Ub^G76V-GFP, flow cytometry), functionality control with proteasomal inhibitor
Type: cell-based
Details: 5 μM MG-132, 24 hours
Procedure: FIGS. 12A-12C show flow-cytometric analysis of untransfected cells (12A), Ub^G76V-GFP transfected cells (12B), and Ub^G76V-GFP transfected cells treated for 24 hours with 5 μM of the proteasomal inhibitor, MG-132 (12C).
Experiments were conducted during development of embodiments of the present invention to investigate the functional consequences of the mutant ubiquilin2 in protein degradation through the ubiquitin-proteasome system (UPS) was investigated. The UPS reporter substrate Ubiquitin^G76V-Green Fluorescent Protein (Ub^G76V-GFP) was used to test the effects of mutant ubiquilin2 on the ubiquitin-mediated protein degradation. Two mutations at two different sites were tested (P497H and P506T) using the Ub^G76V-GFP reporter system. […]
SH-SYSY and Neuro2a cells were grown in 24-well plates and double-transfected with the UPS reporter (20) vector containing UbG76V-GFP (Addgene plasmid #11941) and a dual expression vector containing DsRed2 with either wild-type or mutant Ubiquilin 2. […] All flow cytometric data were collected and analyzed using a MoFlo cell sorter and Summit software (DakoCytomation, Fort Collins, Colo.). […] At least 500 such events were recorded. […]

With `CC(C)C[C@@H](C=O)NC(=O)[C@H](CC(C)C)NC(=O)[C@H](CC(C)C)NC(=O)OCc1ccccc1` [MG-132] (Cbz-Leu-Leu-Leu-aldehyde) the “GFP fluorescence (FL1) intensity / accumulation of the Ub^G76V-GFP signal” value was “marked increase in GFP fluorescence (FL1) intensity; also recorded: remarkable accumulation of the Ub^G76V-GFP signal”.
